Measurements reported in patent publication US4405637A, “β-Lactam antibacterial agents” (Beecham Group Limited, priority 1977, dated 1983).
Values after ≈ are worked out from the molar mass of the structure shown.

Columns and labels:
Test in all cases: inhibition of bacterial growth, MIC (agar)
Type in all cases: cell-based
E. coli 0111 = conditions: Escherichia coli, read-out: concentration required to inhibit growth (MIC)
Proteus mirabilis C977 = conditions: read-out: concentration required to inhibit growth (MIC)
Staph. aureus 1517 = conditions: Staphylococcus aureus, read-out: concentration required to inhibit growth (MIC)
Staph. aureus Russell = conditions: Staphylococcus aureus, read-out: concentration required to inhibit growth (MIC)
Strep pyogenes CN10 = conditions: Streptococcus pyogenes, Staph. pyogenes CN 10 (so in the source), read-out: concentration required to inhibit growth (MIC)
Klebsiella aerogenes A = conditions: read-out: concentration required to inhibit growth (MIC)
[1] = tested on: Salmonella typhimurium CT10; conditions: Salmonella enterica, read-out: concentration required to inhibit growth (MIC)
Staph. aureus Oxford = conditions: Staphylococcus aureus, read-out: concentration required to inhibit growth (MIC)
Shigella sonnei MB 11967 = conditions: MB11967, read-out: concentration required to inhibit growth (MIC)
Serratia marcescens US20 = conditions: read-out: concentration required to inhibit growth (MIC)
Proteus rettgeri WM16 = conditions: Providencia rettgeri, read-out: concentration required to inhibit growth (MIC)
Enterobacter cloacae N1 = conditions: read-out: concentration required to inhibit growth (MIC)
Bacillus subtilis A = conditions: read-out: concentration required to inhibit growth (MIC)
Proteus morganii I 580 = conditions: Morganella morganii, I580, read-out: concentration required to inhibit growth (MIC)
Citrobacter freundii E8 = conditions: read-out: concentration required to inhibit growth (MIC)
Salmonella typhimurium = conditions: Salmonella enterica, Salmonella typhimurium (strain not given), read-out: concentration required to inhibit growth (MIC)

MIC (Salmonella typhimurium) [mg/L] | Compound | MIC (E. coli 0111) [mg/L] | MIC (Proteus mirabilis C977) [mg/L] | MIC (Staph. aureus 1517) [mg/L] | MIC (Staph. aureus Russell) [mg/L] | MIC (Strep pyogenes CN10) [mg/L] | MIC (Klebsiella aerogenes A) [mg/L] | MIC [1] [mg/L] | MIC (Staph. aureus Oxford) [mg/L] | MIC (Shigella sonnei MB 11967) [mg/L] | MIC (Serratia marcescens US20) [mg/L] | MIC (Proteus rettgeri WM16) [mg/L] | MIC (Enterobacter cloacae N1) [mg/L] | MIC (Bacillus subtilis A) [mg/L] | MIC (Proteus morganii I 580) [mg/L] | MIC (Citrobacter freundii E8) [mg/L]
 | COC(=O)/C=C/C[C@@H]1C(=O)N2C(C(=O)OC3OC(=O)c4ccccc43)=CC[C@H]12 (relative stereo) [Compound 41, Phthalidyl 6-(3-methoxycarbonyl-2-propen-1-yl)-7-oxo-1-azabicyclo[3,2,0]hept-2-ene-2-carboxylate] | 50 (≈ 130 µM) | 100 (≈ 261 µM) | ≤ 0.8 | ≤ 0.8 | ≤ 0.8 | 50 (≈ 130 µM) | 50 (≈ 130 µM) | ≤ 0.8 | 50 (≈ 130 µM) |  |  |  |  |  | 
 | N#C/C=C/C[C@@H]1C(=O)N2C(C(=O)OCc3ccccc3)=CC[C@H]12 (relative stereo) [Compound 56, Benzyl 6-(3-cyano-2-propen-1-yl)-7-oxo-1-azabicyclo[3,2,0]hept-2-ene-2-carboxylat] | 20 (≈ 64.9 µM) | 20 (≈ 64.9 µM) | ≤ 2 | ≤ 2 |  | 20 (≈ 64.9 µM) | 20 (≈ 64.9 µM) | ≤ 2 | 20 (≈ 64.9 µM) | 20 (≈ 64.9 µM) | 20 (≈ 64.9 µM) | 20 (≈ 64.9 µM) | 20 (≈ 64.9 µM) | 20 (≈ 64.9 µM) | 20 (≈ 64.9 µM)
7 (≈ 20 µM) | N#C/C=C/C[C@@H]1C(=O)N2C(C(=O)OC3OC(=O)c4ccccc43)=CC[C@H]12 (relative stereo) [Compound 61, Phthalidyl 6-(3-cyano-2-propen-1-yl)-7-oxo-1-azabicyclo[3.2.0]hept-2-ene-2-carboxylat] |  |  |  |  |  |  |  |  |  |  |  |  |  |  | 
 | CC(C)(O)[C@@H]1C(=O)N2C(C(=O)OCc3ccccc3)=CC[C@H]12 (relative stereo) [Example 4 cis-isomer, Benzyl 6-(2-hydroxy-2-propyl)-7-oxo-1-azabicyclo[3,2,0]hept-2-ene-2-carboxylate] |  |  |  | ≤ 2 |  | ≤ 2 |  | ≤ 2 | ≤ 2 | 20 (≈ 66.4 µM) |  | 20 (≈ 66.4 µM) |  |  | 
